# Laboratory results as given in US20200060276A1, “THIAZOLE COMPOUND AND HERBICIDE” (OAT Agrio Co., Ltd., priority 2017, published 2020).
# Legend:
# Format in all cases: in vivo
# [1] = tested on: Echinochloa crus-galli (L.) P. Beauv. var. formosensis Ohwi; assay: Test for Herbicidal Effect in Flooding Treatment (#1), ECHDG; details: for ECHDG #1 herbicidal effect (growth inhibition rating 0-5): flooding treatment #1
# Outline: (§1)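 Flooded soil in cups was seeded 24 h after flooding, then treated with compound in acetone diluted with Tween 80-containing water, dropped onto the water surface at 2 kg/ha. After growth in a glasshouse, growth inhibition was scored visually on day 21 on a 0 (<10%) to 5 (≥90% or complete withering) scale.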
# Monochoria vaginalis = assay: Test for Herbicidal Effect in Flooding Treatment (#1), MONVA; details: for MONVA #1 herbicidal effect (growth inhibition rating 0-5): flooding treatment #1
# Description: (#1) Test for Herbicidal Effect in Flooding Treatment: Styrol cups each having an opening diameter of 8 cm (about 52 cm^2) were respectively filled with soil (45 ml) which had been passed through a sieve (2 mm). Water (about 115 ml) was mixed with the soil such that the soil was flooded. After the soil stood still for 24 hours, Monochoria vaginalis, Echinochloa crus-galli (L.) P. Beauv. var. formosensis Ohwi, Cyperus difformis (umbrella sedge), and Scirpus juncoides were seeded. Each of the compounds of the present invention was dissolved in acetone, and the obtained product was then diluted with water containing Tween 80®. Each of the resultant chemical solutions was dropped on the entire surface of an associated one of treatment sections, so that each section was treated with 1 ml of the respective chemical solution (a dose of 2 kg/ha). After the treatment, the plants were grown in a glasshouse. On day 21, a survey was conducted on the herbicidal activity by visual observation, and evaluation was made according to the following criteria. 0: Growth inhibition effect is less than 10%. 1: Growth inhibition effect is equal to or greater than 10%, and less than 30%. 2; Growth inhibition effect is equal to or greater than 30%, and less than 50%. 3: Growth inhibition effect equal to or greater than 50%, and less than 70%. 4: Growth inhibition effect is equal to or greater than 70%, and less than 90%. 5: Growth inhibition effect is equal to or greater than 90%, or complete withering is achieved. ECHDG=Echinochloa crus-galli (L.) P. Beauv. var. formosensis Ohwi, MONVA=Monochoria vaginalis, SCIJU=Scirpus juncoides, CYMIC=Cyperus microiria.
# Scirpus juncoides = assay: Test for Herbicidal Effect in Flooding Treatment (#1), SCIJU; details: for SCIJU #1 herbicidal effect (growth inhibition rating 0-5): flooding treatment #1
# Outline: as §1
# [2] = tested on: Echinochloa crus-galli (L.) P. Beauv. var. formosensis Ohwi; assay: Test for Herbicidal Effect in Flooding Treatment (#2), ECHDG at 2-2.5 leaf stage; details: for ECHDG (2-2.5L) #2 herbicidal effect (growth inhibition rating 0-5): flooding treatment #2, 2-2.5 leaf stage
# Outline: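 Scoring is a visual 0–5 scale of growth inhibition (0 below 10%, 5 at 90% or more or full withering), taken 21 days after treatment in a glasshouse. Dose was 0.2 kg/ha, applied as acetone/Tween 80 aqueous solution onto flooded soil once seedlings reached the 2–2.5 leaf stage.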
# [3] = flooding treatment at seeding, dose 2 kg/ha, visual observation on day 21
Compound,ECHDG #1 herbicidal effect (growth inhibition rating 0-5) [1],MONVA #1 herbicidal effect (growth inhibition rating 0-5) (Monochoria vaginalis),SCIJU #1 herbicidal effect (growth inhibition rating 0-5) (Scirpus juncoides),ECHDG (2-2.5L) #2 herbicidal effect (growth inhibition rating 0-5) [2],"ECHDG #1 herbicidal effect (growth inhibition grade) [1, 3]",MONVA #1 herbicidal effect (growth inhibition grade) (Monochoria vaginalis; [3]),SCIJU #1 herbicidal effect (growth inhibition grade) (Scirpus juncoides; [3]),"inhibition at 200 g/ha ([2]; Echinochloa crus-galli, 504 h, flooding treatment (#2), ECHDG at 2-2.5 leaf stage, dose of 0.2 kg/ha, day 21, visual observation, read-out: growth inhibition effect)","ECHDG (2-2.5L) #2 herbicidal effect (growth inhibition grade) ([2]; flooding treatment at 2-2.5 leaf stage, dose 0.2 kg/ha, visual observation on day 21)"
COc1cccc(Cl)c1C[S+]([O-])c1ncc(Cl)s1 (stereo not drawn) [Compound 1B-1],"5 (Growth inhibition effect is equal to or greater than 90%, or complete withering is achieved)","3 (Growth inhibition effect equal to or greater than 50%, and less than 70%)","4 (Growth inhibition effect is equal to or greater than 70%, and less than 90%)","4 (Growth inhibition effect is equal to or greater than 70%, and less than 90%)",–,–,–,–,–
[O-][S+](Cc1ccccc1OC(F)F)c1ncc(Cl)s1 (stereo not drawn) [Compound 1B-2],"5 (Growth inhibition effect is equal to or greater than 90%, or complete withering is achieved)","5 (Growth inhibition effect is equal to or greater than 90%, or complete withering is achieved)","5 (Growth inhibition effect is equal to or greater than 90%, or complete withering is achieved)","5 (Growth inhibition effect is equal to or greater than 90%, or complete withering is achieved)",–,–,–,–,–
[O-][S+](Cc1c(F)cccc1OC(F)F)c1ncc(Cl)s1 (stereo not drawn) [Compound 1B-3],"5 (Growth inhibition effect is equal to or greater than 90%, or complete withering is achieved)","5 (Growth inhibition effect is equal to or greater than 90%, or complete withering is achieved)","5 (Growth inhibition effect is equal to or greater than 90%, or complete withering is achieved)","5 (Growth inhibition effect is equal to or greater than 90%, or complete withering is achieved)",–,–,–,–,–
[O-][S+](Cc1c(OCC(F)F)cccc1C(F)(F)F)c1ncc(Cl)s1 (stereo not drawn) [Compound 1B-8],"5 (Growth inhibition effect is equal to or greater than 90%, or complete withering is achieved)","5 (Growth inhibition effect is equal to or greater than 90%, or complete withering is achieved)","5 (Growth inhibition effect is equal to or greater than 90%, or complete withering is achieved)","5 (Growth inhibition effect is equal to or greater than 90%, or complete withering is achieved)",–,–,–,–,–
[O-][S+](Cc1c(Cl)cccc1OCC(F)(F)F)c1ncc(Cl)s1 (stereo not drawn) [Compound 1B-10],"5 (Growth inhibition effect is equal to or greater than 90%, or complete withering is achieved)","5 (Growth inhibition effect is equal to or greater than 90%, or complete withering is achieved)","5 (Growth inhibition effect is equal to or greater than 90%, or complete withering is achieved)","5 (Growth inhibition effect is equal to or greater than 90%, or complete withering is achieved)",–,–,–,–,–
[O-][S+](Cc1c(F)cccc1OCC(F)(F)C(F)F)c1ncc(Cl)s1 (stereo not drawn) [Compound 1B-12],"5 (Growth inhibition effect is equal to or greater than 90%, or complete withering is achieved)","5 (Growth inhibition effect is equal to or greater than 90%, or complete withering is achieved)","5 (Growth inhibition effect is equal to or greater than 90%, or complete withering is achieved)","5 (Growth inhibition effect is equal to or greater than 90%, or complete withering is achieved)",–,–,–,–,–
[O-][S+](Cc1c(F)cccc1OCC(F)(F)C(F)F)c1ncc(Cl)s1 (stereo not drawn) [Compound 1B-13],"5 (Growth inhibition effect is equal to or greater than 90%, or complete withering is achieved)","5 (Growth inhibition effect is equal to or greater than 90%, or complete withering is achieved)","5 (Growth inhibition effect is equal to or greater than 90%, or complete withering is achieved)","2 (Growth inhibition effect is equal to or greater than 30%, and less than 50%)",–,–,–,–,–
CC(c1c(F)cccc1OC(F)F)[S+]([O-])c1ncc(Cl)s1 (stereo not drawn) [Compound 1B-16],"5 (Growth inhibition effect is equal to or greater than 90%, or complete withering is achieved)","5 (Growth inhibition effect is equal to or greater than 90%, or complete withering is achieved)","5 (Growth inhibition effect is equal to or greater than 90%, or complete withering is achieved)","3 (Growth inhibition effect equal to or greater than 50%, and less than 70%)",–,–,–,–,–
COc1cccc(Cl)c1C[S+]([O-])c1ncc(Br)s1 (stereo not drawn) [Compound 1B-17],"5 (Growth inhibition effect is equal to or greater than 90%, or complete withering is achieved)","3 (Growth inhibition effect equal to or greater than 50%, and less than 70%)","5 (Growth inhibition effect is equal to or greater than 90%, or complete withering is achieved)","5 (Growth inhibition effect is equal to or greater than 90%, or complete withering is achieved)",–,–,–,–,–
[O-][S+](Cc1c(F)cccc1OC(F)F)c1ncc(Br)s1 (stereo not drawn) [Compound 1B-19],"5 (Growth inhibition effect is equal to or greater than 90%, or complete withering is achieved)","5 (Growth inhibition effect is equal to or greater than 90%, or complete withering is achieved)","5 (Growth inhibition effect is equal to or greater than 90%, or complete withering is achieved)","5 (Growth inhibition effect is equal to or greater than 90%, or complete withering is achieved)",–,–,–,–,–
[O-][S+](Cc1c(Cl)cccc1OC(F)F)c1ncc(Br)s1 (stereo not drawn) [Compound 1B-20],"5 (Growth inhibition effect is equal to or greater than 90%, or complete withering is achieved)","5 (Growth inhibition effect is equal to or greater than 90%, or complete withering is achieved)","5 (Growth inhibition effect is equal to or greater than 90%, or complete withering is achieved)","5 (Growth inhibition effect is equal to or greater than 90%, or complete withering is achieved)",–,–,–,–,–
[O-][S+](Cc1c(Cl)cccc1OC(F)(F)C(F)(F)F)c1ncc(Br)s1 (stereo not drawn) [Compound 1B-24],"5 (Growth inhibition effect is equal to or greater than 90%, or complete withering is achieved)","5 (Growth inhibition effect is equal to or greater than 90%, or complete withering is achieved)","5 (Growth inhibition effect is equal to or greater than 90%, or complete withering is achieved)","5 (Growth inhibition effect is equal to or greater than 90%, or complete withering is achieved)",–,–,–,–,–
[O-][S+](Cc1c(F)cccc1OCC(F)(F)C(F)F)c1ncc(Br)s1 (stereo not drawn) [Compound 1B-26],"5 (Growth inhibition effect is equal to or greater than 90%, or complete withering is achieved)","5 (Growth inhibition effect is equal to or greater than 90%, or complete withering is achieved)","5 (Growth inhibition effect is equal to or greater than 90%, or complete withering is achieved)","4 (Growth inhibition effect is equal to or greater than 70%, and less than 90%)",–,–,–,–,–
COc1cccc(Cl)c1CS(=O)(=O)c1ncc(Cl)s1 [Compound 1C-6],–,–,–,–,"5 (Growth inhibition effect is equal to or greater than 90%, or complete withering is achieved)","5 (Growth inhibition effect is equal to or greater than 90%, or complete withering is achieved)","5 (Growth inhibition effect is equal to or greater than 90%, or complete withering is achieved)",≥ 90%,"5 (Growth inhibition effect is equal to or greater than 90%, or complete withering is achieved)"
